Source: patent US20230240290A1, “USE OF (Z)-3-HEXENYL ESTERS AND METHOD FOR PROTECTING PLANTS AGAINST PESTS” (UNIVERSITAT POLITÈCNICA DE VALÈNCIA, priority 2020, published 2023)

Assays:
Tuta absoluta = assay: Field (commercial greenhouse) assay, leaflets infested by T. absoluta; type: in vivo; details: commercial tomato greenhouse, infested leaflets per plant, 500 dispensers/ha
Description: To know the behavior of the dispensers loaded with (Z)-3-hexenyl propionate under real cultivation conditions, four commercial greenhouses for tomato cv Raf located in Xilxes (Castellón province), with a history of problems with T. absoluta contamination at the end of winter, were selected. An experimental design of randomized blocks was carried out where each greenhouse was considered a block with two treatments per block and 4 repetitions per treatment. […]
Twenty plants randomly chosen by repetition were sampled weekly for 11 weeks, beginning 30 Jan. […] First, the number of leaflets infested by T. absoluta per plant was counted. Then the number of N. tenuis (adults and nymphs) throughout the apical third of each plant (leaves, flowers and shoots) was counted. Following the methodology described above, 6 samples were taken from the apical part of each plant per repetition, and these samples were immediately introduced into liquid nitrogen to quantify the expression of the PR1 and PIN2 genes (described in Example 1 and Example 2). The expression of these genes was quantified one day before, 4, and 8 weeks after hanging the dispensers in the greenhouses.

Diaphorina citri = assay: Citrus field assay with sentinel Murraya paniculata seedlings with and without dispenser; type: in vivo
Description: A Valencia orange field with a high presence of receptive shoots and a population of D. citri adults located in the experimental fields of SWFREC (University of Florida) was selected. […] Sentinel plants that were hung inside the tree canopy were used. The sentinel plants were seedlings of Murraya paniculata with shoots receptive to the laying of D. citri. 7 seedlings with a dispenser (polymeric dispenser that was loaded with 1.5 ml of (Z)-3-hexenyl propanoate) and 7 seedlings without a dispenser were used. Each seedling was distributed in the field following a random block design (using a row of trees as a block), and one seedling with a dispenser and another one without was placed in each block. The seedlings were located at a minimum distance of 50 meters from each other to avoid any edge effect.
After 4 days of placing the seedlings, these were collected from the field and taken to the laboratory, where the number of eggs per shoot in each of the seedlings was counted under a binocular loupe.

[1] = tested on: SI-PI-II (marker for plant proteinase inhibitors); assay: Transcriptional response of SI-PI-II in tomato plants exposed to volatiles (laboratory); type: in vivo, Solanum lycopersicum cv. Moneymaker; details: intact tomato plants exposed 24 h; filter paper, 1:10,000 ester:methanol; n=8
Description: Moneymaker tomato plants were used. Two weeks after seed germination, the seedlings were individually transplanted into pots (8×8×8 cm). The plants were kept at 25±2° C., with a constant relative humidity of 65%±5% and a 14:10 h (light:dark) photoperiod. Tomato plants that had not received any pesticide treatment at four weeks of age (about 20 cm tall) were used. All volatiles used were obtained from Sigma-Aldrich (St. Louis, Mo., USA). Each volatile was exposed by using a 2×2 cm piece of filter paper on which 10 μl of a solution containing the corresponding volatile at a concentration of 1:10,000 [(Z)-3-hexenyl ester:methanol] was impregnated as an emitting source of the corresponding volatile (Pérez-Hedo, M. et al. Biocontrol, 63: 203-213 (2018)).
To activate a plant, two pieces of filter paper impregnated with the volatile were placed at the bottom of a 30×30×30 cm plastic cage (BugDorm-1 Insect Tents; MegaView Science Co., Ltd, Taichung, Taiwan) into which the plant was introduced. A control treatment was carried out in which the two pieces of filter paper were impregnated with 10 μl of methanol. Eight repetitions per treatment were performed. The plants of the treatments were kept exposed to the volatile without disturbing for 24 hours in separate and isolated climatic chambers to avoid any interference from the volatiles and were kept at 25±2° C., 65±10% RH, and a 14:10 h (L:D) photoperiod. […]
The methodology followed for extracting and quantifying gene expression was described by Pérez-Hedo et al. Journal of Pest Science 3: 543-554 (2015). The primers used were forward primer: 5′-[…]-3′ (SEQ ID NO: 1) and reverse primer: 5′-[…]-3′ (SEQ ID NO: 2) for the quantification of PR1, forward primer: 5′-[…]-3′ (SEQ ID NO: 3) and reverse primer: 5′-[…]-3′ (SEQ ID NO: 4) for SI-PI-I, and forward primer: 5′-[…]-3′ (SEQ ID NO: 5) and reverse primer: 5′-[…]-3′ (SEQ ID NO: 6) for the SI-PI-II gene. […]

CC/C=C\CCOC(=O)CC [(Z)-3-hexenyl propanoate]
Infestation of T. absoluta lower than control (Tuta absoluta): about 58%
Reduction of D. citri (laying, eggs per shoot) (Diaphorina citri; Valencia orange field, Murraya paniculata sentinel seedlings, dispenser with 1.5 ml, 4 days): more than 70%
Laying of D. citri (Diaphorina citri; citrus plant exposed to the volatile, summary statement): reduced by more than half
Transcriptional response of SI-PI-II compared to the control [1]: significantly overexpressed
